Measurements published in patent US20250176547A1, “AGRICULTURE COMPOSITION” (Nippon Kayaku Kabushiki Kaisha, priority 2022, published 2025).

Tests used:
Assay type in all cases: in vivo
kidney bean leaves = experiment: Phytotoxicity evaluation of kidney bean leaves after Test Example 2
Description: (§1) Kidney bean leaves were cut into squares that measured 2.5 cm on one side, and the cut leaves were placed on absorbent cotton moistened with water. Ten first instar larvae of Thrips palmi were released thereon. 30 mL of the agricultural composition diluted 500 times with water was sprayed on the kidney bean leaves using a hand spray. After air drying, the larvae were kept in a constant temperature chamber at 25° C. One day after the treatment, life and death was observed, and the death rate was calculated. In addition, the state of the kidney bean leaves after the test was observed, and the phytotoxicity was also evaluated.
Evaluation Criteria for Phytotoxicity
• −: No change on the leaf surface • ±: Slight damage is recognized on the leaf surface • +: Damage is recognized on part of the leaf surface • ++: Damage is recognized on the entire surface of the leaf surface

Tetranychus urticae = experiment: Biological Test Example 1: test for controlling Tetranychus urticae (leaf spray); settings: composition diluted 1000 times with water, 30 mL sprayed on kidney bean leaves, 25° C., two days after the treatment
Description: Kidney bean leaves were cut into squares that measured 2.5 cm on one side, and the cut leaves were placed on absorbent cotton moistened with water. Ten Tetranychus urticae […] were released thereon. 30 mL of each agricultural composition diluted 1000 times with water was sprayed on the kidney bean leaves by using a hand spray. After air drying, the bean leaves were transferred into a plastic cup and stored in a constant temperature chamber at 25° C. Two days after the treatment, the life and death of the imagoes was observed, and the death rate was calculated.

Thrips palmi = experiment: Biological Test Example 2: test for controlling Thrips palmi (leaf spray); settings: first instar larvae; composition diluted 500 times with water, 30 mL sprayed on kidney bean leaves, 25° C., one day after the treatment
Description: as §1

Molecule | Test Example 2 Leaf shape phytotoxicity (kidney bean leaves; in vivo) | Test Example 1 Spider mite imagoes (death rate) (Tetranychus urticae) [%] | Test Example 2 Leaf shape phytotoxicity (kidney bean leaves; kidney bean leaves after the test, composition diluted 500 times with water) | Test Example 2 Thrip larvae (death rate) (Thrips palmi) [%]
N,N-dimethyl fatty acid (C8-10) amide [Comparative Example 4] | ++ |  |  | 
Propylene glycol monolauric acid ester [Comparative Example 3] |  | 100 | − | 50
CCCCCCCCCCCCN1CCCC1=O [Comparative Example 8, N-lauryl-2-pyrrolidone] | +++ | 100 |  | 100
N,N-dimethyl fatty acid (C12-14) amide [Comparative Example 6] | +++ |  |  | 
Sorbitan monolauric acid ester [Comparative Example 2] | − | 0 |  | 20
Diglycerin monocaprylic acid ester [Comparative Example 1] | − | 60 |  | 20
